# Experimental data as given in patent US20220184084A1, “COMPOSITIONS AND METHODS FOR TREATING CUSHING'S DISEASE” (The Regents of the University of California, priority 2019, published 2022).
# Like-named read-outs stand apart in the source and are kept apart here. Starred links: 1 amine or outer side, 2 acyl side, 3 side chain; linkers in the order of their positions; H or OH if unused. Non-standard residues stand in square brackets, D forms with d. Residues, ends and D or L forms follow the SMILES beside them. Groups on a side chain read outwards from the residue. *: point of attachment. Ethylenediamine = C(CN[*:2])N[*:1]; Hyp = O=C(O)[C@@H]1C[C@@H](O)CN1; Phg = N[C@H](C(=O)O)c1ccccc1; CO = O=C([*:1])[*:2]; Bn = c1ccc(C*)cc1
# Columns and labels:
# [1] = system: AtT20 cells stably transfected with POMC promoter driven luciferase; experiment: POMC promoter-driven luciferase assay (POMC-Luc); type: cell-based, murine; conditions: 1 day
# Description: Using a POMC promoter-driven luciferase assay, the direct actions of the aforementioned compounds on POMC transcription was examined.
# AtT20 cells [2] = experiment: AtT20 cell proliferation IC50 (CellTiter-Glo); type: cell-based, murine; conditions: read-out: IC50 for proliferation inhibition
# Description: The IC50 values were calculated using sigmoidal dose-response curve (GraphPad Prism).
# AtT20 cells [3] = experiment: Nuclei staining (Hoechst 33342 dye), screen of kinase inhibitor library; type: cell-based, murine; conditions: Mus musculus; for inhibition at 1 µM / inhibition at 10 µM: read-out: Nuclei Inhibition (%)
# Description: This plate was incubated in a Cytomat 6000 sealed with gas permeable polyurethane film (USA Scientific) and imaged on ImageXpress^XL (Molecular Devices). All these instruments are integrated on a Beckman Coulter SAMI automation platform which tracks timing to ensure accuracy and consistency of all steps.
# AtT20 cells [4] = experiment: ACTH AlphaLISA assay, screen of kinase inhibitor library; type: cell-based, murine; conditions: Mus musculus, read-out: ACTH Inhibition (%)
# Description: The latter mouse antibody is then trapped by an anti-mouse IgG (Fc specific) conjugated to acceptor beads, bringing the donor and acceptor beads into close proximity. […] Conversely if the cell SN ACTH is reduced following treatment with an ACTH inhibitor, the Alpha signal is restored.
# One column (#1) with vehicle treatment only, and two cell-free columns (#23 & 24) were included as AlphaLISA signal negative and positive controls respectively to monitor assay performance.
# Thereafter, 2 μL of cell culture supernatant was transferred from the black culture plate into a white low volume assay plate (Corning) using Vprep (Agilent) equipped with Velocity 11 Biocel 1800 (Agilent). 1 μL of biotinylated ACTH peptide solution (AnaSpec) and 1 μL of anti-ACTH antibody solution (EMD) is added sequentially into the low volume assay plate using AquaMax DW4 (Molecular Devices) Following a 1 h incubation, 1 μL donor and acceptor beads (PerkinElmer) were added to the assay plate using ELx405 (BioTek). Optical seals (Sigma) are used to minimize assay evaporation during the subsequent 2 h incubation. The assay plate is then transferred by a Thermo Spinnaker robotic arm to Envision (PerkinElmer) for AlphaLISA signal detection.
# AtT20 cells [5] = experiment: Relative proliferation rate, panobinostat and buparlisib alone and combined; type: cell-based, murine; conditions: Veh 1.0±0.06
# Description: FIG. 6G depicts the results of a study wherein AtT20 cells were treated with panobinostat and burparlisib simultaneously to detect the effects on cell proliferation.
# AtT20 cells [6] = experiment: ACTH secretion in AtT20 cells (ELISA); type: cell-based, murine; conditions: for EC50: Mus musculus, read-out: EC50 for ACTH secretion inhibition
# Description: The EC50 for ACTH secretion inhibition were calculated using a sigmoidal dose-response curve (GraphPad Prism).
# FIG. 6F depicts the results of a study wherein AtT20 cells were treated with panobinostat and burparlisib simultaneously to detect the effects on ACTH secretion.
# AtT20 cells [7] = experiment: Expression of POMC regulators (Nurr1, Nur77, LXRα, GR) after treatment; type: cell-based, murine
# Description: Accordingly, the expressions of several nuclear receptors, known as POMC positive and negative regulators, including Nurr1 (NR4A2), Nur77 (NR4A1), LXRα (NR1H3), and GR (NR3C1), were examined.
# AtT20 cells [8] = experiment: c-Myc and cell cycle inhibitor mRNA by real time PCR; type: cell-based; conditions: murine corticotroph tumor cells, 5 nM, 24 h
# Nurr1 = Nurr1 interaction with HDACs and Nurr1 phosphorylation by immunoprecipitation; type: cell-based
# Description: FIG. 7F depicts the interactions between Nurr1, HDACs, and Nurr1 phosphorylation, as detected by immunoprecipitation.
# [9] = system: human corticotroph tumor primary cultures; experiment: ACTH secretion in human corticotroph tumor primary culture (ELISA); type: cell-based; conditions: Vehicle 3.7±0.2
# [10] = system: human corticotroph tumor primary cultures; experiment: Proliferation of human corticotroph tumor primary cultures (CellTiter-Glo); type: cell-based; conditions: two human primary corticotroph tumor cultures, 3 days, read-out: IC50 anti-proliferative effect
# [11] = system: AtT20 cells inoculated into athymic nude mice; experiment: Xenograft model of Cushing disease; type: in vivo, athymic nude mice (Nu/J strain); conditions: 300 mg/kg oral gavage daily, 18 days
# Description: Animal bodyweight was recorded daily. […] Tumor size was recorded daily. […] Tumor size was measured post euthanizer. […] Tumor weight was measured post euthanizer. […] Blood samples were collected by cardiac puncture and plasma ACTH levels were measured by ELISA. […] Blood samples were collected by cardiac puncture and plasma corticosterone levels were measured by ELISA. […] AtT20 cells (2×10^5/animal) were injected into the hind flank region of athymic nude mice (Nu/J strain from Jackson lab). […] During 18-days of CUDC-907-treatment, animal bodyweight (FIG. 4A) and tumor sizes (FIG. 4B) were measured daily. Upon experiment completion, the animals were euthanized and tumors were harvested, and weighed. Blood samples were collected by cardiac puncture.
# [12] = system: murine corticotroph tumor Caspase-3/7; experiment: Caspase-Glo3/7 assay; type: cell-based; conditions: 24 hours
# AtT20 cells [13] = experiment: Histone acetylation (H3K9) and AKT pathway activation in AtT20 cells; type: cell-based, murine; conditions: 3 days
# AtT20 cells [14] = experiment: POMC mRNA expression in AtT20 cells by real time PCR; type: cell-based, murine; conditions: 20 nM to 1.25 nM, 24 h, RT-PCR
# Description: The POMC mRNA expression […] values were determined by real time PCR.
# FIG. 6I depicts the results of a study wherein AtT20 cells were treated with panobinostat and burparlisib simultaneously to detect the effects on POMC mRNA expression.
# [15] = background statement; cited from earlier work
# [16] = Mus musculus, AtT20, 72 h, 3 days
# [17] = 72 h, 1 μM, AtT20 cells, 3 days
# [18] = 72 h, 10 μM, AtT20 cells, 3 days
# [19] = 72 h, 100 nM, AtT20 cells, 3 days
# [20] = Mus musculus, AtT20, 72 h, 3 day-treatment
smiles,measurement,setting,value
CS(=O)(=O)N1CCN(Cc2cc3nc(-c4cccc5[nH]ncc45)nc(N4CCOCC4)c3s2)CC1 [pictilisib],effect on POMC transcription,[1],increased POMC transcription at higher doses
same,IC50,AtT20 cells [2]; [16],800 nM
COc1ccc(-c2ccc3ncc4c(c3c2)n(-c2ccc(N3CCNCC3)c(C(F)(F)F)c2)c(=O)n4C)cn1 [BGT226 (NVP-BGT226)],inhibition at 0.1 µM,"AtT20 cells [3]; 72 h, AtT20 cells, 3 days",94.3%
same,inhibition at 1 µM,AtT20 cells [3]; [17],99%
same,inhibition at 10 µM,AtT20 cells [3]; [18],95.4%
same,inhibition at 0.1 µM,AtT20 cells [4]; [19],57.5%
same,inhibition at 1 µM,AtT20 cells [4]; [17],86.3%
same,inhibition at 10 µM,AtT20 cells [4]; [18],88.2%
Cc1[nH]c2ccccc2c1CCNCc1ccc(/C=C/C(=O)NO)cc1 [panobinostat],Relative Proliferation Rate,AtT20 cells [5]; panobinostat 5 nM alone,1.0±0.01
same,Relative Proliferation Rate,AtT20 cells [5]; panobinostat 10 nM alone,0.8±0.005
same,IC50,AtT20 cells [2]; [20],20 nM
same,EC50,AtT20 cells [6],4 nM
same,ACTH secretion,"AtT20 cells [6]; panobinostat 5 nM alone, Veh 39.6±2",28.7 ± 0.1 ng/mL
same,ACTH secretion,"AtT20 cells [6]; panobinostat 10 nM alone, Veh 39.6±2",13.6 ± 1 ng/mL
same,inhibition of ACTH secretion,AtT20 cells [6]; panobinostat 5 and 10 nM alone,up to 66%
COc1ccc(-c2nc(N3CCOCC3)c3sc(CN(C)c4ncc(C(=O)NO)cn4)cc3n2)cn1 [CUDC-907],inhibition at 0.1 µM,"AtT20 cells [3]; 72 h, AtT20 cells, 3 days",90.1%
same,inhibition at 1 µM,AtT20 cells [3]; [17],99.2%
same,inhibition at 10 µM,AtT20 cells [3]; [18],99.3%
same,Nurr1 expression,"AtT20 cells [7]; 1.25 nM, 24 h",reduction in Nurr1 expression
same,LXRα expression,"AtT20 cells [7]; 5 and 10 nM, 24 h",reductions
same,Nur77 expression,"AtT20 cells [7]; 5 and 10 nM, 24 h",reductions
same,Nurr1 protein expression,AtT20 cells [7]; 6 h-treatment,dramatic inhibition
same,GR expression,AtT20 cells [7]; 24 h,minor effects
same,Nurr1 mRNA expression,AtT20 cells [7]; real time PCR,inhibition of Nurr1 mRNA expression
same,c-Myc mRNA expression,AtT20 cells [8],increased
same,"Nurr1 interaction with HDAC-1, 2, 3, but not HDAC10",Nurr1,unaffected
same,Nurr1 serine/threonine phosphorylation levels,Nurr1,dramatically inhibited
same,ACTH secretion,[9],1.9 ± 0.001 ng/mL
same,IC50,"[10]; Homo sapiens, 72 h",3 nM
same,IC50,[10],5 nM
same,EC50,"[1]; Mus musculus, 24 h, read-out: EC50 for POMC transcription inhibition",0.5 nM
same,reduction of plasma ACTH level,[11]; vs controls,77%
same,reduction of plasma corticosterone level,[11]; vs controls,85%
same,reduction in tumor size,[11]; vs vehicle,~35%
same,reduction in tumor weight,[11]; vs vehicle,44%
same,tumor weight,[11]; Control 0.098±0.02,0.04±0.006 gram
same,tumor volume,[11]; Control 0.17±0.05,0.065±0.02 cm^3
same,Plasma corticosterone,[11]; Control 180±87,27 ± 4.66 ng/mL
same,Plasma ACTH,[11]; Control 206.1±27.2,47.4 ± 7.3 pg/mL
same,activity of caspase-3 and -7,[12],increasing the activity
same,inhibition at 0.1 µM,AtT20 cells [4]; [19],84.7%
same,inhibition at 1 µM,AtT20 cells [4]; [17],80.1%
same,inhibition at 10 µM,AtT20 cells [4]; [18],80%
same,AKT activation and downstream target 4E-BPI,AtT20 cells [13],blocked
same,histone acetylation Ac-H3-K9,AtT20 cells [13],elevated histone acetylation
same,IC50,AtT20 cells [2]; 3 day-treatment,5.1 nM
same,IC50,AtT20 cells [2]; [20],5 nM
same,reduction of ACTH secretion,AtT20 cells [6]; 1.25 nM,59%
same,ACTH secretion,"AtT20 cells [6]; 1.25 nM, 24 h, Vehicle 30±19",12 ± 2.4 ng/mL
same,ACTH secretion,"AtT20 cells [6]; 2.5 nM, 24 h, Vehicle 30±19",12 ± 5.7 ng/mL
same,EC50,AtT20 cells [6],1 nM
same,ACTH secretion,"AtT20 cells [6]; concentration not given, 24 h, Vehicle 30±19",15 ± 2.2 ng/mL
same,effect on POMC mRNA expression,AtT20 cells [14],potent reduction in POMC mRNA expression
Cc1nc(Nc2n[nH]c3c2CN(C(=O)N[C@H](CN(C)C)c2ccccc2)C3(C)C)c2sccc2n1 [PF-3758309],inhibition at 0.1 µM,"AtT20 cells [3]; 72 h, AtT20 cells, 3 days",91.5%
same,inhibition at 1 µM,AtT20 cells [3]; [17],95.6%
same,inhibition at 10 µM,AtT20 cells [3]; [18],95.2%
same,inhibition at 0.1 µM,AtT20 cells [4]; [19],70.4%
same,inhibition at 1 µM,AtT20 cells [4]; [17],70.2%
same,inhibition at 10 µM,AtT20 cells [4]; [18],77.5%
Nc1cc(C(F)(F)F)c(-c2cc(N3CCOCC3)nc(N3CCOCC3)n2)cn1 [buparlisib],Relative Proliferation Rate,AtT20 cells [5]; buparlisib 62.5 nM alone,1.0±0.06
same,effect on POMC transcription,[1],increased POMC transcription at higher doses
same,IC50,AtT20 cells [2]; [16],500 nM
same,effect on ACTH secretion,AtT20 cells [6]; buparlisib alone,did not inhibit ACTH secretion
CC[C@@H]1C(=O)N(C)c2cnc(Nc3ccc(C(=O)NC4CCN(C)CC4)cc3OC)nc2N1C1CCCC1 [BI 2536],inhibition at 1 µM,"AtT20 cells [3]; AtT20, 72 h",92.3%
same,inhibition at 10 µM,"AtT20 cells [3]; AtT20, 72 h",94%
same,inhibition at 0.1 µM,"AtT20 cells [4]; AtT20, 72 h",54.9%
same,inhibition at 1 µM,"AtT20 cells [4]; AtT20, 72 h",82%
same,inhibition at 10 µM,"AtT20 cells [4]; AtT20, 72 h",77.7%
NCCCC[C@@H]1NC(=O)[C@@H](Cc2c[nH]c3ccccc23)NC(=O)[C@H](c2ccccc2)NC(=O)[C@@H]2C[C@@H](OC(=O)NCCN)CN2C(=O)[C@H](Cc2ccccc2)NC(=O)[C@H](Cc2ccc(OCc3ccccc3)cc2)NC1=O [pasireotide] (cyclo([Hyp]([CO-Ethylenediamine])[Phg][dW]KY(Bn)F)),patients in whom the drug causes diabetes,[15],approximately 50%
CCc1cnn2c(NCc3ccc[n+]([O-])c3)cc(N3CCCC[C@H]3CCO)nc12 [Dinaciclib (SCH727965)],inhibition at 0.1 µM,"AtT20 cells [3]; 72 h, AtT20 cells, 3 days",92%
same,inhibition at 1 µM,AtT20 cells [3]; [17],98.3%
same,inhibition at 10 µM,AtT20 cells [3]; [18],98%
same,inhibition at 0.1 µM,AtT20 cells [4]; [19],58.1%
same,inhibition at 1 µM,AtT20 cells [4]; [17],77.3%
same,inhibition at 10 µM,AtT20 cells [4]; [18],69.2%
